Earlier results, collected in US20040265381A1, “Anti-asthmatic drug (asmakure) from indigenous herbs to cure the disease asthma” (priority 2001, published 2004).

For CCN(CC)CC#CCOC(=O)C(O)(c1ccccc1)C1CCCCC1.Cl (stereo not drawn) [Oxybutynin, α-cyclohexyl-α-hydroxybenzeneacetic acid 4-(diethylamino)-2-butynyl ester hydrochloride], the “start of pharmacological action” value (following oral administration) is given as “within one hour” and the half-life (in vivo) is given as “less than 2 hours”.
